Measured values from patent US11566057B2, “Long-acting co-agonists of the glucagon and GLP-1 receptors” (Merck Sharp & Dohme Corp., priority 2017, dated 2023).
Where two headings read alike, the source gives them in different places. Numbered stars: 1 amine (or outer) side, 2 acyl side, 3 side chain; on linkers, the order of the positions; unused ones are H or OH. Square brackets hold non-standard residues; d marks the D form. Side chains are listed from the residue outwards. Peptide text beside a SMILES is read from it. * marks the point of attachment. C18 diacid = O=C(O)CCCCCCCCCCCCCCCCC(=O)*; γGlu = O=C(O)[C@H](CCC(=O)[*:2])N[*:1]; Met(O2) = CS(=O)(=O)CC[C@H](N)C(=O)O; αMeD = C[C@](N)(CC(=O)O)C(=O)O; AEEA = NCCOCCOCC(=O)O; Aib = CC(C)(N)C(=O)O

Key:
human GLP1R = molecular target: T1, human GLP1R (Homo sapiens, UniProt P43220); test: cAMP activity assay at the GLP-1 receptor (GLP1R); format: cell-based
T1 construct: expressed in transfected cells; growth medium holds Blasticidin and Hygromycin
T1 sequence (P43220 24-463): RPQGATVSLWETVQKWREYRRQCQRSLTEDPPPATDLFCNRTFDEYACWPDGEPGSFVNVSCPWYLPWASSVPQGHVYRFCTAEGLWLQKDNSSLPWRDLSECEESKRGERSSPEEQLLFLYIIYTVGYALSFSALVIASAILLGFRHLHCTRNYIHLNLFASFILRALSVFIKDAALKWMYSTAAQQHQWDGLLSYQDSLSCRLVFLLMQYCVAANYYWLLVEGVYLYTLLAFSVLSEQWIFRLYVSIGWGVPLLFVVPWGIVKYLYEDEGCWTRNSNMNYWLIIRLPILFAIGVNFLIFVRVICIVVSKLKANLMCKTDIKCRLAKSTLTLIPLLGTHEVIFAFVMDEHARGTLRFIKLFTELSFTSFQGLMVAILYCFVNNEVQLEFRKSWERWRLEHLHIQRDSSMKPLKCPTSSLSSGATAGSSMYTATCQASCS
Outline: (§1)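 Peptides serially diluted from DMSO (10 points) and added to frozen-stock cells bearing human GLP1R (10,000 cells/well) or GCGR (30,000 cells/well), 1 h at RT, dark. EC50 by four-parameter logistic fit of HitHunter cAMPXS luminescence, read following overnight RT incubation.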

human GCGR = molecular target: T2, human GCGR (Homo sapiens, UniProt P47871); test: cAMP activity assay at the Glucagon receptor (GCGR); format: cell-based; conditions: for hGCGR/hGLP1R (hTone): ratio of GCGR EC50 to GLP1R EC50
T2 construct: expressed in transfected cells; growth medium holds Blasticidin and Hygromycin
T2 sequence (P47871 26-477): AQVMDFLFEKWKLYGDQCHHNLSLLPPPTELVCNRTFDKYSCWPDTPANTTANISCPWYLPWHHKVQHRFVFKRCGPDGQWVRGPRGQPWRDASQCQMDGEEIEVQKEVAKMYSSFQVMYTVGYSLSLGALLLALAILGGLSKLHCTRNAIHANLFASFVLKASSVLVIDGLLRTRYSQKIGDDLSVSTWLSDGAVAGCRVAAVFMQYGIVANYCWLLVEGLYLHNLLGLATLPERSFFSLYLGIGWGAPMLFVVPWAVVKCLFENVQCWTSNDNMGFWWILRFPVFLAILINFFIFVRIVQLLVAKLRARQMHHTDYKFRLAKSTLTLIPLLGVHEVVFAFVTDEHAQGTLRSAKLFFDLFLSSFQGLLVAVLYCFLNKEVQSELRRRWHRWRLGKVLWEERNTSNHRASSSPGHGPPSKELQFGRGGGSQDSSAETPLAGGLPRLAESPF
Outline: as §1

[1] = summary statement: EC50 at each of the glucagon and GLP-1 receptors, read-out: EC50 at the GLP-1 receptor
[2] = cells expressing human GCGR, cAMP production, buffer with or without 20% human serum (not stated which), read-out: GCGR EC50 human
[3] = summary statement: EC50 at each of the glucagon and GLP-1 receptors, read-out: EC50 at the glucagon receptor
[4] = cells expressing human GLP1R, cAMP production, buffer with or without 20% human serum (not stated which), read-out: GLP1R EC50 human

Compound | EC50 (human GLP1R; [1]) | EC50 (human GCGR; [2]) | hGCGR/hGLP1R (hTone) (human GCGR) | EC50 (human GCGR; [3]) | EC50 (human GLP1R; [4])
CC(C)C[C@H](NC(=O)[C@H](Cc1ccc(O)cc1)NC(=O)[C@H](CCCCN)NC(=O)[C@H](CO)NC(=O)[C@H](Cc1ccc(O)cc1)NC(=O)[C@H](CC(=O)O)NC(=O)[C@H](CO)NC(=O)[C@@H](NC(=O)[C@H](Cc1ccccc1)NC(=O)[C@@H](NC(=O)CNC(=O)[C@H](CCC(N)=O)NC(=O)C(C)(C)NC(=O)[C@@H](N)Cc1c[nH]cn1)[C@@H](C)O)[C@@H](C)O)C(=O)N[C@@H](CC(=O)O)C(=O)N[C@@H](C)C(=O)N[C@@H](CCCNC(=N)N)C(=O)N[C@@H](C)C(=O)N[C@@H](C)C(=O)N[C@@H](CCC(N)=O)C(=O)N[C@@H](CCC(=O)O)C(=O)N[C@@H](Cc1ccccc1)C(=O)N[C@H](C(=O)N[C@@H](CCCCNC(=O)COCCOCCNC(=O)COCCOCCNC(=O)CC[C@H](NC(=O)CCCCCCCCCCCCCCCCC(=O)O)C(=O)O)C(=O)N[C@@H](Cc1c[nH]c2ccccc12)C(=O)N[C@@H](CC(C)C)C(=O)N[C@@H](CCS(C)(=O)=O)C(=O)N[C@@H](CC(=O)O)C(=O)N[C@H](C(N)=O)[C@@H](C)O)C(C)C [TP702] (H-H[Aib]QGTFTSDYSKYLDARAAQEFVK([AEEA-AEEA-γGlu-C18 diacid])WL[Met(O2)]DT-NH2; N-terminus assumed) | < 5 nM | 0.35 nM | 1.4 | < 5 nM | –
CC(C)C[C@H](NC(=O)[C@H](CCCCN)NC(=O)[C@H](CCCCN)NC(=O)[C@H](CO)NC(=O)[C@H](Cc1ccc(O)cc1)NC(=O)[C@H](CCC(=O)O)NC(=O)[C@H](CO)NC(=O)[C@@H](NC(=O)[C@H](Cc1ccccc1)NC(=O)[C@@H](NC(=O)CNC(=O)[C@H](CCC(N)=O)NC(=O)C(C)(C)NC(=O)[C@@H](N)Cc1c[nH]cn1)[C@@H](C)O)[C@@H](C)O)C(=O)N[C@@H](CC(=O)O)C(=O)N[C@@H](C)C(=O)N[C@@H](CCCNC(=N)N)C(=O)N[C@@H](C)C(=O)N[C@@H](C)C(=O)N[C@@H](CCCCNC(=O)COCCOCCNC(=O)COCCOCCNC(=O)CC[C@H](NC(=O)CCCCCCCCCCCCCCCCC(=O)O)C(=O)O)C(=O)N[C@@H](CC(=O)O)C(=O)N[C@@H](Cc1ccccc1)C(=O)N[C@H](C(=O)N[C@@H](CCC(N)=O)C(=O)N[C@@H](Cc1c[nH]c2ccccc12)C(=O)N[C@@H](CC(C)C)C(=O)N[C@@H](CCS(C)(=O)=O)C(=O)N[C@@H](CC(=O)O)C(=O)N[C@H](C(N)=O)[C@@H](C)O)C(C)C [TP703] (H-H[Aib]QGTFTSEYSKKLDARAAK([AEEA-AEEA-γGlu-C18 diacid])DFVQWL[Met(O2)]DT-NH2) | – | > 19.8 nM | – | – | > 19.8 nM
CC(C)C[C@H](NC(=O)[C@H](Cc1ccc(O)cc1)NC(=O)[C@H](CCCCN)NC(=O)[C@H](CO)NC(=O)[C@H](Cc1ccc(O)cc1)NC(=O)[C@H](CC(=O)O)NC(=O)[C@H](CO)NC(=O)[C@@H](NC(=O)[C@H](Cc1ccccc1)NC(=O)[C@@H](NC(=O)CNC(=O)[C@H](CCC(N)=O)NC(=O)C(C)(C)NC(=O)[C@@H](N)Cc1c[nH]cn1)[C@@H](C)O)[C@@H](C)O)C(=O)N[C@@H](CC(=O)O)C(=O)N[C@@H](C)C(=O)N[C@@H](CCCNC(=N)N)C(=O)N[C@@H](C)C(=O)N[C@@H](C)C(=O)N[C@@H](CCCCNC(=O)COCCOCCNC(=O)COCCOCCNC(=O)CC[C@H](NC(=O)CCCCCCCCCCCCCCCCC(=O)O)C(=O)O)C(=O)N[C@@H](CCC(=O)O)C(=O)N[C@@H](Cc1ccccc1)C(=O)N[C@H](C(=O)N[C@@H](CCC(N)=O)C(=O)N[C@@H](Cc1c[nH]c2ccccc12)C(=O)N[C@@H](CC(C)C)C(=O)N[C@@H](CCS(C)(=O)=O)C(=O)N[C@@H](CC(=O)O)C(=O)N[C@H](C(N)=O)[C@@H](C)O)C(C)C [TP704] (H-H[Aib]QGTFTSDYSKYLDARAAK([AEEA-AEEA-γGlu-C18 diacid])EFVQWL[Met(O2)]DT-NH2; N-terminus assumed) | < 5 nM | 0.27 nM | 0.7 | < 5 nM | –
CC(C)C[C@H](NC(=O)[C@H](Cc1ccc(O)cc1)NC(=O)[C@H](CCCCN)NC(=O)[C@H](CO)NC(=O)[C@H](Cc1ccc(O)cc1)NC(=O)[C@H](CC(=O)O)NC(=O)[C@H](CO)NC(=O)[C@@H](NC(=O)[C@H](Cc1ccccc1)NC(=O)[C@@H](NC(=O)CNC(=O)[C@H](CCC(N)=O)NC(=O)C(C)(C)NC(=O)[C@@H](N)Cc1c[nH]cn1)[C@@H](C)O)[C@@H](C)O)C(=O)N[C@@H](CC(=O)O)C(=O)N[C@@H](C)C(=O)N[C@@H](CCCNC(=N)N)C(=O)N[C@@H](C)C(=O)N[C@@H](C)C(=O)N[C@@H](CCCCNC(=O)COCCOCCNC(=O)COCCOCCNC(=O)CC[C@H](NC(=O)CCCCCCCCCCCCCCCCC(=O)O)C(=O)O)C(=O)N[C@@H](CC(=O)O)C(=O)N[C@@H](Cc1ccccc1)C(=O)N[C@H](C(=O)N[C@@H](CCC(=O)O)C(=O)N[C@@H](Cc1c[nH]c2ccccc12)C(=O)N[C@@H](CC(C)C)C(=O)N[C@@H](CCS(C)(=O)=O)C(=O)N[C@@H](CCCCN)C(=O)N[C@H](C(N)=O)[C@@H](C)O)C(C)C [TP705] (H-H[Aib]QGTFTSDYSKYLDARAAK([AEEA-AEEA-γGlu-C18 diacid])DFVEWL[Met(O2)]KT-NH2; N-terminus assumed) | < 5 nM | – | 3.6 | < 5 nM | 0.41 nM
CC(C)C[C@H](NC(=O)[C@H](Cc1ccc(O)cc1)NC(=O)[C@H](CCCCN)NC(=O)[C@H](CO)NC(=O)[C@H](Cc1ccc(O)cc1)NC(=O)[C@H](CC(=O)O)NC(=O)[C@H](CO)NC(=O)[C@@H](NC(=O)[C@H](Cc1ccccc1)NC(=O)[C@@H](NC(=O)CNC(=O)[C@H](CCC(N)=O)NC(=O)C(C)(C)NC(=O)[C@@H](N)Cc1c[nH]cn1)[C@@H](C)O)[C@@H](C)O)C(=O)N[C@@H](CC(=O)O)C(=O)N[C@@H](C)C(=O)N[C@@H](CCCNC(=N)N)C(=O)N[C@@H](C)C(=O)N[C@@H](C)C(=O)N[C@@H](CCCCNC(=O)COCCOCCNC(=O)COCCOCCNC(=O)CC[C@H](NC(=O)CCCCCCCCCCCCCCCCC(=O)O)C(=O)O)C(=O)N[C@@H](CCC(=O)O)C(=O)N[C@@H](Cc1ccccc1)C(=O)N[C@H](C(=O)N[C@@H](CCC(N)=O)C(=O)N[C@@H](Cc1c[nH]c2ccccc12)C(=O)N[C@@H](CC(C)C)C(=O)N[C@@H](CCS(C)(=O)=O)C(=O)N[C@@](C)(CC(=O)O)C(=O)N[C@H](C(N)=O)[C@@H](C)O)C(C)C [TP713] (H-H[Aib]QGTFTSDYSKYLDARAAK([AEEA-AEEA-γGlu-C18 diacid])EFVQWL[Met(O2)][αMeD]T-NH2; N-terminus assumed) | < 5 nM | – | 2.2 | < 5 nM | 0.71 nM
